Measured values taken from patent publication US20020076401A1, “Heat shock protein inducing factor and method for its in-situ generation from an inactive form” (priority 2000, published 2002).
Where a SMILES comes first, the peptide text is derived from it. The star is where a group is joined. Cbz = O=C(OCc1ccccc1)*

Columns and labels:
[1] = tested on: Hsp72 expression in old cells; details: cited from earlier work
[2] = tested on: HSP-inducing factor in serum; assay: In-vivo activation of HSP-inducing factor by prolonged release of periodate; set-up: species or system mouse; details: 500 mM released over 72 hours, SQ pump; detected after 3 hours and maintained
Method: In another type of experiment […] of either 500 mM solution of sodium periodate in physiological saline or physiological saline alone were released over a period of 72 hours using microosmotic pumps implanted SQ. In parallel experiments the same concentration of periodate but prequenched with potassium borohydride as described above was administered. After different time periods blood samples were collected from tail and serum was used in the assay described above.

[3] = tested on: HSP-inducing factor in blood serum and ascites fluid; assay: In-vitro activation of HSP-inducing factor by sodium periodate; format: cell-based, mouse
Method: To activate HSP-inducing factor, 200 mM solution of sodium periodate in physicological saline (solutions of sodium periodate in water or in 50 mM sodium acetate pH 5.0 work equally well) was added to aliquots of serum or of ascites fluid to final concentration of 1 mM to 20 mM (at these concentrations and in conditions outlined below, sodium periodate oxidizes only sugar groups). Mixtures were incubated at room temperature in darkness for 1 hour. Following the incubation sodium periodate was quenched by the addition of solution of potassium borohydride in physiological saline to a final concentration equal to 1.5 times excess of the concentration of sodium periodate. The completeness of quenching was verified by using potassium iodide-starch test paper.
(§1) Aliquots of serum, treated as described above, were added to cultures of CH1 cells and cultures of primary human fibroblasts at 20% of final volume. Cultures were incubated for 16 hours at regular tissue culture conditions (37° C., 5% CO2). Following the incubation, cells were collected, washed, and lysed. Lysates were subjected to polyacrylamide gel electrophoresis (PAGE), transferred to nitrocellulose membrane (Awestem transfer≅), and Hsp70 was detected by immunoblotting with Hsp70-specific monoclonal antibody (Spa810) and visualized by ECL technique.

[4] = tested on: Hsp70-inducing activity in serum; assay: Periodate treatment of serum from differently stressed mice; format: cell-based; details: in vitro periodate treatment
[5] = tested on: HSP-inducing factor in serum; assay: In-vivo activation of HSP-inducing factor by single injection of periodate; set-up: species or system mice
Method: as §1
Mice were injected with either intraperitoneally (IP) or subcutaneously (SQ) with 0.2 ml of sodium periodate solution in physiological saline, or with 0.2 ml of physiological saline alone.
Four different concentrations of sodium periodate were used: 15 mM, 30 mM, 60 mM, and 120 mM. In parallel experiments the same concentrations of periodate but prequenched with potassium borohydride as described above were injected. After 2 hours blood samples were collected from tail and serum was used in the assay described above.

| Structure (SMILES) | toxicity [1] | Hsp72 synthesis ([1]; old cells) | levels of HSP-inducing factor in serum [2] | levels of active factor versus periodate concentration ([3]; assessed by Hsp70 in cell lysates) | activation of HSP-inducing factor ([3]; blood serum and ascites fluid, 1 mM to 20 mM, 1 hour, room temperature) | Hsp70 in cell lysate relative to cells incubated with untreated serum ([3]; maximal sodium periodate concentration, serum at 20%, 16 hours) | Hsp70-inducing activity of serum from differently stressed mice after periodate treatment [4] | levels of HSP in cell lysates relative to cells incubated with untreated serum ([5]; maximal sodium periodate concentration, single injection) | levels of HSP-inducing factor in serum ([5]; mice, IP or SQ 0.2 ml of 15-120 mM, 2 hours) | levels of HSP-inducing factor versus periodate concentration ([5]; mice, single injection) |
| --- | --- | --- | --- | --- | --- | --- | --- | --- | --- | --- |
| CC(C)C[C@@H](C=O)NC(=O)[C@H](CC(C)C)NC(=O)[C@H](CC(C)C)NC(=O)OCc1ccccc1 [MG132] (Cbz-Leu-Leu-Leu-aldehyde) | highly toxic | induces Hsp72 synthesis via an alternative heat shock transcription factor HSF2 | – | – | – | – | – | – | – | – |
| [O-][I+3]([O-])([O-])O [sodium periodate] | – | – | Substantially increased levels of HSP-inducing factor | directly proportional to concentrations of sodium periodate used | strongly activated | at least 50 times | further increased in all samples to a level identical to that seen in periodate-activated serum from non-stressed mice | about 10 times | substantially increased levels of HSP-inducing factor | directly proportional to the concentrations of periodate used |
